In patent US6121264A, “Imidazole-substituted quinoxalinedione derivatives” (Yamanouchi Pharmaceutical Co., Ltd., priority 1996, dated 2000):
Like-named read-outs stand apart in the source and are kept apart here.

Tests used:
NMDA receptors = details: in vivo; cited from earlier work
neuronal culture system = details: compound alone; cited from earlier work
[1] = test system: rat fetal hippocampus neurons; assay: Kainic acid neurotoxicity inhibition (LDH release) in primary culture of rat fetal hippocampus neurons; type: cell-based; details: Neuron, 300 μM kainic acid, 24 hours, read-out: Anti-kainic acid neurotoxicity (IC50)
Source text: 2) Measurement of kainic acid neurotoxicity inhibition activity:
The action of the compound of the present invention to inhibit kainic acid neurotoxicity was examined using a primary culture system of rat fetal hippocampus neurons.
Hippocampus was excised from the brain of a rat of 18 to 20 days of age and treated with enzymes papain and DNase I to disperse the cells. The cells were suspended in MEM containing 10% serum and inoculated in 4×10^5 cells/cm^2 portions into wells of a 48 well plate which has been treated in advance with poly-I-lysine, and the medium was exchanged with serum-free medium 24 hours thereafter. The medium exchange was carried out twice a week. The cells cultured for 6 days or more were used in the following test.
(2) Kainic acid neurotoxicity inhibition
The neurotoxicity was expressed as the activity of lactate dehydrogenase released in the culture medium caused by cell death. Cells exposed for 24 hours to serum-free medium containing 300 μM of kainic acid were used as the control, and the action of each of the same test compounds used in the above item 1) to inhibit neuronal death caused by kainic acid was evaluated by allowing each compound to act upon the neurons for 24 hours simultaneously with 300 μM of kainic acid.

AMPA receptor [2] = assay: [3H]-AMPA binding inhibition activity; details: about 45 nM [3H]-AMPA, rat cerebral membrane, 45 minutes on ice water
Procedure: 1) Measurement of [^3 H]-AMPA binding inhibition activity:
A 0.5 ml portion in total volume of a reaction solution containing about 45 nM of [^3 H]-AMPA [2-amino-3-(3-hydroxy-5-methyl-4-isoxazole)propionicacid], about […] of rat cerebral membrane samples and each of the test compounds was allowed to undergo 45 minutes of the reaction on ice water. The amount of [^3 H]-AMPA bonded to the AMPA receptor was measured by a filtration method. The portion substituted by 10 μM of quisqualic acid among the total amount of binding was defined as the amount of specific binding. Evaluation of the test compounds was carried out by calculating the ratio of binding inhibition exerted on the specific binding.
As the test compounds, the compound of Example 3, which will be described later, was used as the compound of the present invention, and a compound described as Example 1 in the aforementioned reference 1, represented by the following formula (to be referred to as comparative compound 1 hereinafter), was used as a comparative compound. […]

AMPA receptor [3] = details: Data reported at the American Society of Neuroscience (1996); read-out: AMPA binding inhibition activity (IC50); cited from earlier work
DBA/2 mice = assay: Audiogenic seizure inhibition action in DBA/2 mice; type: in vivo; details: Mus musculus, ip, 0.25 h; DBA/2 male mice, intraperitoneal injection 15 minutes before sound stimulus (12 kHz, 120 dB); read-out: minimum effective dose (MED), inhibition of audiogenic seizure
Procedure: 3) Measurement of audiogenic seizure inhibition action in DBA/2 mice
In a sound proof box, a total of 10 male mice of 21 to 28 days of age were exposed to auditory and stimulation by the sound of 12 kHz and 120 dB was applied for 1 minute or until the mice fell into a fit of convulsions. A compound to be tested (the compound of Example 3 which will be described later) was suspended in 0.5% methyl cellulose solution or dissolved in physiological saline and administered by intraperitoneal injection 15 minutes before the sound stimulus. The drug efficacy was evaluated by the presence or absence of spasm, and the minimum effective dose (MED) was calculated.

glycine receptor = details: in vivo; cited from earlier work
AMPA receptor [4] = details: in vivo; cited from earlier work

NC(CCCP(=O)(O)O)C(=O)O (stereo not drawn) [2-amino-5-phosphonovalerianic acid]
effect in nervous disorders induced by NMDA and in animal models of epilepsy and cerebral ischemia (in words) (NMDA receptors): effective

NC(CCCCCP(=O)(O)O)C(=O)O (stereo not drawn) [2-amino-7-phosphonoheptanoic acid]
effect in nervous disorders induced by NMDA and in animal models of epilepsy and cerebral ischemia (in words) (NMDA receptors): effective

Cc1onc(O)c1CC(N)C(=O)O (stereo not drawn) [AMPA, 2-amino-3-(3-hydroxy-5-methyl-4-isoxazolyl)propionic acid]
action in neurotoxicity test (in words) (neuronal culture system): weak action

O=C(O)Cn1c(=O)c(=O)[nH]c2cc([N+](=O)[O-])c(-n3ccnc3)cc21 [Comparative compound 1]
IC50 [1]: 800 nM | IC50 (AMPA receptor [2]): 140 nM

O=c1[nH]c2cc(C(F)(F)F)c(N3CCOCC3)cc2n(CP(=O)(O)O)c1=O [Comparative compound 2]
IC50 (AMPA receptor [3]): 150 nM

O=c1[nH]c2cc([N+](=O)[O-])c(-n3ccnc3)cc2n(CCCCOS(=O)(=O)O)c1=O [Example 3, 4-[2,3-dioxo-7-(1H-imidazol-1-yl)-6-nitro-1,2,3,4-tetrahydroquinoxalin-1-yl]butanesulfate]
minimal effective dose (DBA/2 mice): 3 mg/kg | IC50 [1]: 160 nM | IC50 (AMPA receptor [2]): 39 nM

NC1CCN(O)C1=O (stereo not drawn) [HA-966]
effect in experimental animal model suffering from cerebral ischemia (in words) (glycine receptor): useful

NS(=O)(=O)c1cccc2c1c([N+](=O)[O-])cc1[nH]c(=O)c(=O)[nH]c12 [NBQX]
effect in experimental animal model suffering from cerebral ischemia (in words) (AMPA receptor [4]): useful

C=C(C)[C@H]1CN[C@H](C(=O)O)[C@H]1CC(=O)O [kainic acid]
action in neurotoxicity test (in words) (neuronal culture system): induces by itself significant neuronal death
